Measured values published in patent publication US10300074B2, “Use of inhibitor of apoptosis protein (IAP) antagonists in HIV therapy” (Sanford-Burnham Medical Research Institute, priority 2014, dated 2019).

Experiments:
[1] = system: Latently infected Jurkat JLat 10.6 cells; conditions: HDAC inhibitor in combination with Compound 35, 36 hours, normalized against background of HDAC inhibitor alone
XIAP BIR1/2 = XIAP BIR1/2 (Homo sapiens (Human), UniProt P98170); test: XIAP BIR1/2 Ki; type: binding; conditions: Table B-1
Chain of XIAP BIR1/2 (P98170 1-240): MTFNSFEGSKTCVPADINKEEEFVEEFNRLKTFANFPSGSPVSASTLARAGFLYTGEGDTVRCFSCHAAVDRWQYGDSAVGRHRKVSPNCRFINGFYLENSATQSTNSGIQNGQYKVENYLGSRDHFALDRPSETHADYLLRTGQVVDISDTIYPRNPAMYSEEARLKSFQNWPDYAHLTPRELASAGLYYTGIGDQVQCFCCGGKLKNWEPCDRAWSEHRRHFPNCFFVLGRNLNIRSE

XIAP BIR3 = XIAP BIR3 (Homo sapiens (Human), UniProt P98170); test: XIAP BIR3 Ki; type: binding; conditions: Table B-1
Chain of XIAP BIR3 (P98170 241-356): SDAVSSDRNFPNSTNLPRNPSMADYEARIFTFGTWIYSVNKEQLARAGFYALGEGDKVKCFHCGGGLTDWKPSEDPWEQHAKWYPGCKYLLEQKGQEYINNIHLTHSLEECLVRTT

Compound	Group: increase of GFP+ cells [1]	Ki (XIAP BIR1/2) [µM]	Ki (XIAP BIR3) [µM]
CC(CC1OCCN(Cc2nc(=O)[nH][nH]2)C1c1ccc(F)cc1)c1cc(C(F)(F)F)cc(C(F)(F)F)c1 (stereo not drawn) [NKL 22, 3H-1,2,4-Triazol-3-one, 5-[[2-[2-[3,5-bis(trifluoromethyl)phenyl]propyl]-3-(4-fluorophenyl)-4-morpholinyl]methyl]-1,2-dihydro-]	A (A 0-25%)		
O=C(CCCCCCSc1ccc2ccccc2c1)NO [HNHA, Heptanamide, N-hydroxy-7-(2-naphthalenylthio)-]	B (B 25-50%)		
CN[C@@H](C)C(=O)N[C@H]1CCCN(C(C)=O)C2CCC(C(=O)NC3CCCc4ccccc43)N2C1=O (stereo partly drawn) [Compound 20]		> 50	≤ 25
Nc1ccccc1NC(=O)CCCCCCC(=O)Nc1ccccc1 [BML-210, Octanediamide, N1-(2-aminophenyl)-N8-phenyl-]	A (A 0-25%)		
O=Nc1ccc(O)c2ncccc12 [NSC-3852, 8-Quinolinol, 5-nitroso-]	B (B 25-50%)		
CC(/C=C/C(=O)NO)=C\[C@@H](C)C(=O)c1ccc(N(C)C)cc1 [Trichostatin A]	C (C 50-75%)		
CN[C@@H](C)C(=O)N[C@H]1CCS(=O)(=O)[C@H]2CC[C@@H](C(=O)N[C@@H]3CCCc4ccccc43)N2C1=O [Compound 37]		> 50	≤ 25
CN[C@@H](C)C(=O)N[C@H]1Cc2ccc(O)cc2[C@H]2CC(C)(C)C(C(=O)N[C@@H]3CCCc4ccccc43)N2C1=O (stereo partly drawn) [Compound 45]		≤ 25	≤ 25
CN[C@@H](C)C(=O)N[C@H]1CCO[C@H]2CCC(C(=O)n3ccc4ccccc43)N2C1=O (stereo partly drawn) [Compound 22]		> 50	25 to 50
CN[C@@H](C)C(=O)N[C@H]1CCN[C@H]2CCC(C(=O)N[C@@H]3CCCc4ccccc43)N2C1=O (stereo partly drawn) [Compound 29]		> 50	> 50
CN[C@@H](C)C(=O)N[C@H]1CO[C@H]2CCC(C(=O)Nc3ccc(OC)cc3)N2C1=O (stereo partly drawn) [Compound 4]		> 50	25 to 50
CC(C)(C)OC(=O)Nc1ccc(-c2cc(C(=O)NCCCCCCC(=O)NO)no2)cc1 [BML-281, Carbamic acid, N-[4-[3-[[[7-(hydroxyamino)-7-oxoheptyl]amino]carbonyl]-5-isoxazolyl]phenyl]-, 1,1-dimethylethyl ester]	B (B 25-50%)		
CC(C)C(=O)SCCCCCCC(=O)Nc1nc(-c2ccccc2)cs1 [NCH-51, Propanethioic acid, 2-methyl-, S-[7-oxo-7-[(4-phenyl-2-thiazolyl)amino]heptyl] ester]	A (A 0-25%)		
CN[C@@H](C)C(=O)N[C@H]1CCS[C@H]2CCCC(C(=O)N[C@@H]3CCCc4ccccc43)N2C1=O (stereo partly drawn) [Compound 41]		≤ 25	≤ 25
CN[C@@H](C)C(=O)N[C@H]1Cc2c([nH]c3ccccc23)[C@H]2CCC(C(=O)N[C@@H]3CCCc4ccccc43)N2C1=O (stereo partly drawn) [Compound 30]		> 50	25 to 50
CN[C@@H](C)C(=O)N[C@H]1CCCNC2CCC(C(=O)NC3CCCc4ccccc43)N2C1=O (stereo partly drawn) [Compound 16]		25 to 50	≤ 25
CN[C@@H](C)C(=O)N[C@H]1CCN[C@H]2CCC(C(=O)N[C@@H]3CCCc4ccccc43)N2C1=O (stereo partly drawn) [Compound 28]		> 50	25 to 50
CCCC(CCC)C(=O)O [Valproic acid, valproic acid]	A (A 0-25%)		
CN[C@@H](C)C(=O)N[C@H]1CCCNC2CCC(C(=O)Nc3cccc4ccccc34)N2C1=O (stereo partly drawn) [Compound 17]		≤ 25	≤ 25
O=C(CCCCCCC(=O)NO)NO [Suberoyl bis-hydroxamic acid]	B (B 25-50%)		
O=C(CCCCCN1C(=O)c2cccc3cccc(c23)C1=O)NO [Scriptaid]	C (C 50-75%)		

Compound	Group: increase of GFP+ cells [1]	Ki (XIAP BIR1/2) [µM]	Ki (XIAP BIR3) [µM]
CN[C@@H](C)C(=O)N[C@H]1CO[C@H]2CCC(C(=O)NCc3ccccc3)N2C1=O (stereo partly drawn) [Compound 6]			25 to 50
CN[C@@H](C)C(=O)N[C@H]1CO[C@H]2CCC(C(=O)Nc3ccc(Cl)cc3)N2C1=O (stereo partly drawn) [Compound 8]		> 50	25 to 50
CN[C@@H](C)C(=O)N[C@H]1CCO[C@H]2CCC(C(=O)n3ccc4ccccc43)N2C1=O (stereo partly drawn) [Compound 23]			25 to 50
CN[C@@H](C)C(=O)N[C@H]1CCO[C@H]2CC[C@H](C(=O)N[C@@H]3CCOc4ccccc43)N2C1=O [Compound 39]		> 50	25 to 50
CC(=O)N(C)[C@@H](C)C(=O)N[C@H]1CCCN(C(C)=O)[C@H]2CCC(C(=O)Nc3cccc4ccccc34)N2C1=O (stereo partly drawn) [Compound 18]		> 50	25 to 50
CN[C@@H](C)C(=O)N[C@H]1CO[C@H]2CCC(C(=O)NC3CCCc4ccccc43)N2C1=O (stereo partly drawn) [Compound 9]		> 50	≤ 25
CC(=O)N(C)[C@@H](C)C(=O)N[C@H]1CCCN(C(C)=O)[C@H]2CCC(C(=O)Nc3cccc4ccccc34)N2C1=O (stereo partly drawn) [Compound 19]			25 to 50
Oxamflatin	C (C 50-75%)		
CN[C@@H](C)C(=O)N[C@H]1CCO[C@H]2CC(C)(C)C(C(=O)Nc3ccccc3SSc3ccccc3NC(=O)C3N4C(=O)[C@@H](NC(=O)[C@H](C)NC)CCO[C@H]4CC3(C)C)N2C1=O (stereo partly drawn) [Compound 40]		≤ 25	≤ 25
O=C([O-])CCCc1ccccc1.[Na+] [Phenylbutyrate•Na, Phenylbutyrate⋅Na]	A (A 0-25%)		
CN[C@@H](C)C(=O)N[C@@H]1C(=O)N2C(C(=O)Nc3cccc4ccccc34)CC[C@@H]2O[C@@H]1C (stereo partly drawn) [Compound 11]		> 50	25 to 50
CN[C@@H](C)C(=O)N[C@H]1Cc2c([nH]c3ccccc23)[C@H]2CCC(C(=O)N[C@@H]3CCCc4ccccc43)N2C1=O (stereo partly drawn) [Compound 31]		≤ 25	≤ 25
O=C(CCCCCCC(=O)Nc1ccc(F)cc1)NO [p-Fluoro-SAHA]	A (A 0-25%)		
CN[C@@H](C)C(=O)N[C@H]1CO[C@H]2CCC(C(=O)Nc3ccc(OC)cc3)N2C1=O (stereo partly drawn) [Compound 3]			25 to 50
CN[C@@H](C)C(=O)N[C@H]1CCO[C@H]2CC3(CCCC3)C(C(=O)N[C@@H]3CCCc4ccccc43)N2C1=O (stereo partly drawn) [Compound 43]		≤ 25	≤ 25
CN[C@@H](C)C(=O)N[C@H]1CO[C@H]2CCC(C(=O)Nc3ccc(OC)cc3)N2C1=O (stereo partly drawn) [Compound 7]			25 to 50
CN[C@@H](C)C(=O)N[C@H]1CCO[C@H]2CCC(C(=O)Nc3cccc4ccccc34)N2C1=O (stereo partly drawn) [Compound 13]		≤ 25	≤ 25
CN[C@@H](C)C(=O)N[C@H]1CCS(=O)(=O)[C@H]2CC[C@H](C(=O)N[C@@H]3CCCc4ccccc43)N2C1=O [Compound 38]		> 50	25 to 50
CN[C@@H](C)C(=O)N[C@H]1CO[C@H]2CCC(C(=O)NCc3ccccc3)N2C1=O (stereo partly drawn) [Compound 5]		> 50	25 to 50
CN[C@@H](C)C(=O)N[C@@H]1C(=O)N2C(C(=O)NC(c3ccccc3)c3ccccc3)CC[C@@H]2O[C@@H]1C (stereo partly drawn) [Compound 15]		> 50	25 to 50
CN[C@@H](C)C(=O)N[C@H]1CCO[C@H]2CC[C@@H](C(=O)Nc3cccc4ccccc34)N2C1=O [Compound 25]		≤ 25	≤ 25
